Measured values as given in patent publication US8617819B2, “Polymers for analyte detection” (Massachusetts Institute of Technology, priority 2004, dated 2013).

How the values were obtained:
[1] = thin film (solid phase) energy transfer / dye association assay; format: binding; details: for association of free dye with polymer thin films: polymers 3 and 4, thin films
Experimental: Thin film experiments with polymers 3 and 4 were also conducted in this example. Incubation with the dye-labeled streptavidin was performed in the presence of Triton X-100, a non-ionic detergent, to diminish non-specific binding. […] The spectra was scaled to 454 nm.
To perform energy transfer assays in solid phase, the following general protocol was used. The microscope coverslips were pretreated in 1,1,1,3,3,3-hexamethyldisilazane. The polymer solutions at 1 mg/ml in chloroform were spin-cast onto microscope coverslips at a spin rate of 3000 rpm for 1 minute. The coverslips were put under vacuum for 2 h, then were incubated in a solution of dye labeled streptavidin or dye for 1 h. The coverslips were then washed with deionized water, blotted dry and dried under vacuum for a minimum of 5 h. The excitation wavelength at 400 nm was chosen, and the emission spectrum was taken from 415 nm-700 nm.

[2] = Stern-Volmer quenching of polymer 1 by streptavidin-free dyes; format: binding; details: free dye added to polymer 1, 50 mM Tris buffer pH 7.4
Experimental: This mechanism generally requires fairly close proximity between the donor and acceptor chromophores. To study these interactions, the Stern-Volmer (KSV) quenching constants were determined from fluorescence emission and lifetime measurements in 50 mM Tris buffer at pH 7.4. Upon the addition of the streptavidin-free fluorescent dyes (fluorescein, RhB, and sulforhodamine 101, the Texas Red™ parent dye) to polymer 1, the apparent KSV values were determined to be 26,300 M^−1, 91,800 M^−1 and 97,900 M^−1, respectively. […] The dyes therefore may have an inherent affinity for the conjugated polymer backbone. A more planar conformation and greater hydrophobic character for Texas Red™, compared to RhB and fluorescein, may permit better stacking and orbital interaction with the CP backbone, allowing for greater DET. In the case of dye-labeled streptavidin, biological recognition first may bring the dyes into closer proximity with the polymer. Conformational and hydrophobic characteristics of the dyes then may tailor the extent of orbital mixing with the polymer: the flatter Texas Red™ may interact more intimately with the planar conjugated polymer backbone then the other dyes. This may favor DET and can explain the better ET that was observed, even at decreased spectral overlap between the CP donor and dye acceptor.

[3] = tested on: sheep erythrocytes; experiment: hemagglutination inhibition of sheep erythrocytes; format: cell-based
[4] = tested on: E. coli strain mutated in its mannose binding protein (FimH); experiment: fluorescent staining / clustering of FimH mutant (non-mannose binding) E. coli; format: cell-based; details: 30 minutes, OD600 1.0, washed twice with PBS
Experimental: (§1) Two bacterial strains that differed only in their mannose binding properties were used to assess whether the mannosylated PPE 22a could fluorescently stain E. coli. In addition to a strain that binds to mannose, a second strain that is mutated in its mannose binding protein (FimH) to abolish mannose binding was used. The non-functionalized polymer 21, the mannosylated polymer 22a, and 2′-fluorescein aminoethyl mannoside were individually incubated with these bacterial strains. After incubating a 1 ml bacterial suspension at an OD600 of 1.0 with the appropriate polymer or dye labeled mannose for 30 minutes, the suspensions were centrifuged to pellet the cells. The supernatant solution containing unbound polymer or dye labeled mannose was discarded and the cells were washed twice with phosphate buffered saline (PBS, pH 7.2). The bacteria were then resuspended in PBS. […]
(§2) Binding of mannosylated polymer to bacteria was imaged using laser scanning confocal microscopy and fluorescence microscopy. […]
(§3) FIGS. 8A-8B illustrate laser scanning confocal microscopy images. […] FIG. 8D is a conventional fluorescence spectra of polymer 22a in PBS (solid line) and normalized fluorescence spectra of a bacterial cluster obtained using confocal microscopy (dotted line).

[5] = tested on: mannose binding (wild type) E. coli strain; experiment: fluorescent staining / clustering of mannose binding (wild type) E. coli; format: cell-based; details: 30 minutes, OD600 1.0, washed twice with PBS
Experimental: as §1, §2, §3

| Compound | apparent Stern-Volmer quenching constant KSV [2] | association of free dye with polymer thin films [1] | INHIBITING DOSE [3] | other results |
| --- | --- | --- | --- | --- |
| RhB-strept: rhodamine B-labeled streptavidin, about 4.6 dyes/protein | – | – | – | thin film ET of dye-labeled streptavidin ([1]; polymers 3 and 4, in the presence of Triton X-100): exhibited better ET than T-red-strept |
| CCN(CC)c1ccc2c(-c3ccccc3C(=O)O)c3ccc(=[N+](CC)CC)cc-3oc2c1.[Cl-] [RhB, rhodamine B] | 91,800 M^−1 | associated with both 3 and 4 | – | – |
| O=S(=O)([O-])c1cc(S(=O)(=O)O)ccc1C1=c2cc3c4c(c2Oc2c1cc1c5c2CCCN5CCC1)CCC[N+]=4CCC3 [sulforhodamine 101] | 97,900 M^−1 | associated with neither | – | – |
| NCCOC1O[C@H](CO)[C@@H](O)[C@H](O)[C@@H]1O (stereo partly drawn) [2′-Aminoethyl mannoside] | – | – | 0.01 M | – |
| 2′-Fluorescein aminoethyl mannoside | – | – | 0.01 M | binding / fluorescent labelling of E. coli after incubation, pelleting and washing [4]: Neither polymer 21 nor the 2′-fluorescein aminoethyl mannoside appeared to bind either E. coli strain; binding / fluorescent labelling of E. coli after incubation, pelleting and washing [5]: Neither polymer 21 nor the 2′-fluorescein aminoethyl mannoside appeared to bind either E. coli strain |
